Experimental data as given in the supplement of paper PMC10307832.

How the values were obtained:
Assay in all cases: relative viability (nuclei count vs DMSO), 5 days (fraction); higher = more cells survive
Bemcentinib + Pemetrexed = compound: Nc1nc(Nc2ccc3c(c2)CC[C@@H](N2CCCC2)CC3)nn1-c1cc2c(nn1)-c1ccccc1CCC2 [Bemcentinib] + Nc1nc2[nH]cc(CCc3ccc(C(=O)N[C@@H](CCC(=O)O)C(=O)O)cc3)c2c(=O)[nH]1 [Pemetrexed] (partner 0.2 µM)
Procedure, shortened: (§1)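 Lung cancer cell lines, seeded in 1536-well plates, were treated the following day by pin tool with a single drug or with five library-drug doses (not always all listed) in √10 steps on top of a fixed anchor-drug dose. Cells were fixed and nuclei stained in one step after 5 days, and nuclei were counted. Relative viability is the nuclei count for treated wells divided by that for vehicle wells, reported as medians of duplicate plates.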

Bemcentinib + Dasatinib = compound: Nc1nc(Nc2ccc3c(c2)CC[C@@H](N2CCCC2)CC3)nn1-c1cc2c(nn1)-c1ccccc1CCC2 [Bemcentinib] + Cc1nc(Nc2ncc(C(=O)Nc3c(C)cccc3Cl)s2)cc(N2CCN(CCO)CC2)n1 [Dasatinib] (partner 0.075 µM)
Procedure, shortened: as §1

Axitinib + Foretinib = compound: CNC(=O)c1ccccc1Sc1ccc2c(/C=C/c3ccccn3)n[nH]c2c1 [Axitinib] + COc1cc2c(Oc3ccc(NC(=O)C4(C(=O)Nc5ccc(F)cc5)CC4)cc3F)ccnc2cc1OCCCN1CCOCC1 [Foretinib] (partner 0.25 µM)
Procedure, shortened: as §1

Axitinib + Pemetrexed = compound: CNC(=O)c1ccccc1Sc1ccc2c(/C=C/c3ccccn3)n[nH]c2c1 [Axitinib] + Nc1nc2[nH]cc(CCc3ccc(C(=O)N[C@@H](CCC(=O)O)C(=O)O)cc3)c2c(=O)[nH]1 [Pemetrexed] (partner 0.2 µM)
Procedure, shortened: as §1

| Cell Line | relative viability (Bemcentinib + Pemetrexed; first compound 0.04 µM) | relative viability (Bemcentinib + Pemetrexed; first compound 0.1265 µM) | relative viability (Bemcentinib + Pemetrexed; first compound 0.4 µM) | relative viability (Bemcentinib + Pemetrexed; first compound 1.265 µM) | relative viability (Bemcentinib + Pemetrexed; first compound 4 µM) | relative viability (Bemcentinib + Dasatinib; first compound 0.04 µM) | relative viability (Bemcentinib + Dasatinib; first compound 0.1265 µM) | relative viability (Bemcentinib + Dasatinib; first compound 0.4 µM) | relative viability (Bemcentinib + Dasatinib; first compound 1.265 µM) | relative viability (Bemcentinib + Dasatinib; first compound 4 µM) | relative viability (Axitinib + Foretinib; first compound 0.005 µM) | relative viability (Axitinib + Foretinib; first compound 0.01581 µM) | relative viability (Axitinib + Foretinib; first compound 0.05 µM) | relative viability (Axitinib + Foretinib; first compound 0.1581 µM) | relative viability (Axitinib + Foretinib; first compound 0.5 µM) | relative viability (Axitinib + Pemetrexed; first compound 0.005 µM) | relative viability (Axitinib + Pemetrexed; first compound 0.01581 µM) | relative viability (Axitinib + Pemetrexed; first compound 0.05 µM) | relative viability (Axitinib + Pemetrexed; first compound 0.1581 µM) | relative viability (Axitinib + Pemetrexed; first compound 0.5 µM) |
| --- | --- | --- | --- | --- | --- | --- | --- | --- | --- | --- | --- | --- | --- | --- | --- | --- | --- | --- | --- | --- |
| NCI-H2405 | 1.01 | 1.12 | 1.14 | 1.11 | 1.19 | 0.194 | 0.22 | 0.21 | 0.215 | 0.165 | 1.03 | 1.04 | 1.13 | 1.03 | 1.15 | 0.93 | 1.28 | 1.22 | 1.02 | 1.15 |
| NCI-H3122 | – | 0.222 | 0.213 | 0.194 | 0.2 | – | 0.751 | 0.768 | 0.888 | 0.933 | 0.928 | 0.847 | 1.02 | 1.01 | 0.951 | 0.218 | 0.196 | 0.219 | 0.193 | 0.212 |
| PC-3 [JPC-3] | 1.12 | 1.32 | 1.28 | 1.07 | 1.07 | 1.04 | 0.589 | 1.19 | 1.01 | 1.08 | 1.01 | 0.988 | 1.02 | 1 | 1.23 | 0.963 | – | 1.32 | 1.06 | 1.16 |
| PC-14 | 0.131 | 0.13 | 0.139 | 0.141 | 0.124 | 0.236 | 0.259 | 0.249 | 0.224 | 0.236 | 0.92 | 0.819 | 0.989 | 0.861 | 1.03 | 0.135 | 0.114 | 0.158 | 0.137 | 0.142 |
| RERF-LC-KJ | 0.467 | 0.46 | 0.464 | 0.463 | 0.449 | 0.847 | 0.923 | 1.02 | 0.964 | 0.85 | 0.916 | 0.892 | 0.887 | 0.86 | 0.854 | 0.435 | 0.443 | 0.485 | 0.491 | 0.502 |
| SK-LU-1 | 1.02 | 1.04 | 1.08 | 1.08 | 0.984 | 0.181 | 0.201 | 0.197 | 0.191 | 0.155 | 0.904 | 0.959 | 0.929 | 0.849 | 1.1 | 1.01 | 1 | 1.09 | 1.03 | 1.13 |
| SK-MES-1 | 0.958 | 1.1 | 0.987 | 1.03 | 0.967 | 0.303 | 0.416 | 0.384 | 0.477 | 0.426 | 0.976 | 0.977 | 1.02 | 0.925 | 0.951 | 0.949 | 1.03 | 1.02 | 1.04 | 1.04 |
| SW 900 | 0.492 | 0.541 | 0.485 | 0.433 | 0.48 | 0.587 | 0.672 | 0.586 | 0.493 | 0.563 | 1.02 | 0.673 | 0.941 | 1.01 | 1.12 | 0.479 | – | 0.469 | 0.505 | 0.479 |
| SW 1573 | 0.944 | 0.865 | 0.89 | 0.839 | 0.725 | 0.411 | 0.52 | 0.611 | 0.477 | 0.636 | 0.743 | 0.915 | 1.26 | 0.811 | 0.989 | 0.841 | 0.777 | 0.928 | 0.77 | 0.816 |
| UMC-11 | 0.839 | 0.881 | 0.969 | 0.808 | 0.728 | 0.462 | 0.563 | 0.559 | 0.466 | 0.476 | 1.01 | 1.1 | 1.03 | 1.1 | 1.1 | 0.774 | 0.81 | 0.77 | 0.867 | 0.81 |
